{
  "source": "patent US20220380430A1",
  "about": "“Non-Transgenic Functional Rescue of Neuropeptides” (Worcester Polytechnic Institute, priority 2021, published 2022)",
  "key": {"him-5 and pdf-1 males": {"system": "him-5 and pdf-1 males", "experiment": "Excursion (food-leaving) assay after rescue-by-feeding", "format": "in vivo, C. elegans", "conditions": "Probability of Leaving per hour, beyond 35 mm from food", "text": "We quantified the behavioral activity of pdf-1 lof males using a food-leaving behavior as previously described. Individuals were placed on a small food spot, and track patterns were scored at three different time points (2, 6, 24 hrs) (FIG. 4A). “Never left food” indicate the absence of tracks outside the food spot. […] “Major excursion” indicates the presence of tracks past the 1 cm boundary (FIG. 1B, Excursion Assay). The food-leaving behavior was quantified as a measure of mate-searching behavior. In this behavior well-fed males left food in search of mates and the data is represented as a Probability of Leaving (PL) (FIG. 7A).\nThe mate searching behavior of pdf-1 mutants was quantified in a food leaving assay. him-5 animals were used as wild-type control to ensure the presence of males. him-5 and pdf-1 animals were fed OP50, scramble peptide, PDF-1A, PDF-1B, or a 1:1 mixture of PDF-1A and PDF-1B cultures. Four to six larval L4 hermaphrodites were passed onto an NGM plate containing […] AMP and 1 mM IPTG with 75 μL of peptide. These worms were grown at 20° C. for about 4 days until the male progeny of the initial L4 worms were young adults. The day prior to the assay, young adult male pdf-1 or him-5 worms were singled onto 60 mm plates containing lawns of either OP50 (NGM plates) or appropriate peptide cultures (NGM containing […] AMP and 1 mM IPTG). To determine the mate searching effects of pdf-1, we performed a food-leaving assay as described previously in Barrios, A., et al., Nat Neurosci 15, 1675-1682 (2012); Lipton, J., et al., The Journal of neuroscience: the official journal of the Society for Neuroscience 24, 7427-7434 (2004); Ryan, D. A. et al. Curr Biol 24, 2509-2517 (2014), with modifications. In this assay, individuals were placed on a small food spot, and track patterns were scored at the indicated times. Assay plates were prepared one day prior to assaying on 100 mm plates with 10 mL of Leaving Assay media (25 mM KPO4 (pH 6.0), 1 mM MgSO4, 1 mM CaCl2), 50 mM NaCl, 2.5 g/L Peptone, 17 g/L Agar). On center of plate, 7 μL of OP50 was added. Plates were lightly covered and stored at room temperature overnight (˜20° C., <40% humidity).\nOn the day of the assay, a single male was plated on the assay plate and placed in a dark, 20° C. incubator. At 2, 6, and 24 hours after the worms are plated, plates were scored for male worm tracks. Scored were separated into binned ranges. “Never left food” indicates the absence of tracks outside the food spot. […] “Major excursion” indicates the presence of tracks past the 1 cm boundary. The food leaving behavior was quantified at three different time points (2, 6, and 24 hours). (FIG. 4A, FIG. 7A, Table IV).\nThe mate searching defect of pdf-1 was quantified as a Probability of Leaving per hour (PL) (FIG. 4B, FIG. 7B).\nThe assay was performed across at least two days per condition, with at least n=50, wherein each assay plate with one male is equal to n=1. In all experiments, the investigators were blinded to genotype. Worm in the >35 mm from the center of food bin were scored as “leavers”. The probability of leaving per hour (Probability of Leaving (PL)) was calculated using an R script developed in Barrios et al., with assistance by (Personal Communications to Barrios, 2020). PL was calculated by the “hazard obtained by fitting an exponential parametric survival model to the censored data using maximum likelihood” (Table IV). The PLh-1 values for all pdf-1 animals fed scramble or peptide rescue were compared to him-5 worms fed scramble using an ANOVA followed by Bonferroni's multiple comparison (FIG. 4B, FIG. 7C)."}, "flp-3 lof males": {"system": "flp-3 lof males", "experiment": "Drop avoidance assay to ascr #8 after FLP-3 peptide rescue-by-feeding", "format": "in vivo, C. elegans", "conditions": "flp-3 lof males raised on peptide; 1 μM ascr #8; in words", "experimental": "To identify which FLP-3 peptides are required for male avoidance of ascr #8, a peptide feeding approach https://www.nature.com/articles/s42003-021-02547-7-ref-CR59 was adopted, similar to RNAi feeding (FIG. 16A). Using Gateway Cloning technology, FLP-3 peptide coding sequences were inserted into a bacterial expression vector. As a control, first the FLP-3 peptides were tested that are still encoded in the ok3625 allele which are insufficient to drive the proper ascr #8 response in vivo: FLP-3-1 (SPLGTMRFamide) (SEQ ID NO: 10) and FLP-3-4 (NPLGTMRFamide) (SEQ ID NO: 11). Then flp-3 lof animals were reared on lawns of bacteria expressing the rescue constructs, and their progeny were assayed for avoidance (FIG. 16B-FIG. 16D).\nAssays were performed as described previously in Chute, C. D. & Srinivasan, J. Semin. Cell Dev. Biol. 33, 18-24 (2014); Chute, C. D. et al. Nat. Commun. 10, 3186 (2019); and Hilliard, M. A. et al., EMBO J. 23, 1101-1111 (2004). Fifty to sixty L4 worms were segregated by sex and stored at 20° C. for 5 h to overnight to be assayed as young adults. One to four hours prior to the assay, the lids of unseeded plates were tilted to allow any excess moisture to evaporate off the plates. At the time of the assay, 10 or more animals were transferred onto each of the dried, unseeded plates. A drop of either water or 1 μM ascr #8 was placed on the tail of forward moving animals, and their response was scored as either an avoidance response, or no response. The total number of avoidances was divided by the total number of drops to generate an avoidance index for that plate. This was repeated for at least 10 plates over at least three different days.\nSCRAMBLE control or FLP-3 peptide constructs were grown overnight in LB media containing […] ampicillin at 37° C. and diluted to an OD600 of 1.0 prior to seeding on NGM plates containing […] ampicillin and 1 mM IPTG. The 75 μL lawn was left to dry and grow overnight at room temperature before three L4 animals were placed on the plates. Males were selected for testing in the same manner as described above but were isolated onto plates also seeded with the same peptide on which they had been reared. Animals were then assayed using either the avoidance assay or single worm assay."}},
  "note": "No end group written: not given here.",
  "data": [
    {"substance": "NSKLHRGGGRSRTSGSTGSMASHARGSPGLQ-NH2 [SCRAMBLE, scramble control peptide expressed in E. coli DH5α, negative control, reference compound]", "values": [
      {"measurement": "PL (confidence interval)", "setting": "him-5 and pdf-1 males; him-5 males", "value": "0.07727 (0.06532, 0.09141)"},
      {"measurement": "PL (confidence interval)", "setting": "him-5 and pdf-1 males; pdf-1 males", "value": "0.03538 (0.02747, 0.04556)"},
      {"measurement": "rescue of avoidance phenotype to ascr #8 (Avoidance Index)", "setting": "flp-3 lof males", "value": "does not affect behavior"}
    ]}
  ]
}
